Laboratory results reported in US4379165A, “Anti-convulsant” (priority 1981, dated 1983).
“Also recorded” adds a separate entry of the source. Where two headings read alike, the source gives them in different places.

Legend:
[1] = test system: subcutaneous metrazol seizure threshold; experiment: subcutaneous Metrazol Seizure Threshold Test (sc Met), rats; conditions: for animals protected vs sc Met test: intraperitoneal, footnote of Table 5; for ED50: Rattus norvegicus, po
Protocol: (§1) The solution was prepared by dissolving the compound in 30% polyethylene glycol 400. The compound was injected either orally or intraperitoneally in a volume of 0.01 ml/g body weight in mice and 0.04 ml/10 g body weight in rats.
(§2) The profile of anti-convulsant activity for each substance was established by five tests: one electrical and four chemical. The electrical test employed was the maximal electroshock seizure (MES) pattern test. The four chemical tests included the subcutaneous Metrazol Seizure Threshold Test (sc Met), subcutaneous Bicuculline Seizure Threshold Test (sc Bic), subcutaneous Picrotoxin Seizure Threshold Test (sc Pic), and the subcutaneous Strychnine Seizure Pattern Test (sc Strych). These tests are conducted by administering the anti-convulsant compound or drug to the animals then giving the convulsive amount of electrical energy or chemical convulsant and measuring the ability of the test compound to prevent the production of convulsions.
(§3) (b) scMet=Subcutaneous metrazol seizure threshold test. The test measures the ability of the test drug to afford complete protection against a subcutaneously administered convulsant dose of metrazol.
(§4) (j) PI=Protective index, defined as the ratio of TD50 to ED50 (TD50/ED50).

convulsions = experiment: anti-convulsant activity, overall statements from animal studies; type: in vivo; conditions: mice and rats
[2] = test system: Salmonella indicator organisms; experiment: in vitro microbial mutagenicity assays; conditions: 1.0 ug to 10,000.0 ug per plate
Protocol: The amide was examined for mutagenic activity in a series of in vitro microbial assays employing Salmonella indicator organisms. The compound was tested directly and in the presence of liver microsomal enzyme preparations from Aroclor-induced rats. The dose range employed for the evaluation was from 1.0 ug to 10,000.0 ug per plate. The results of the tests conducted on the amide in the absence of a metabolic activation system and in the presence of a rat liver activation system were negative.

[3] = test system: subcutaneous picrotoxin seizure threshold; experiment: animal or person; conditions: Mus musculus, ip, read-out: ED50 Picrotoxin
Protocol: as §1, §2
(§5) (d) scPic=Subcutaneous picrotoxin seizure threshold test.
(§6) (j) PI=Protective index, defined as the ratio of TD50 to ED50 (TD50/ED50). The PI is a measure of the safety of the drug. A high PI value indicates a greater margin of safety between the effective dose for the pharmacological effect and the toxic dose producing side-effects. A compound with a high PI would be a safer drug to use.

[4] = test system: ability to maintain balance on a rotating rod; experiment: Rotorod Toxicity Test, rats; type: in vivo; conditions: for animals toxic: intraperitoneal, footnote of Table 5
Protocol: as §1
(§7) Untreated or normal animals can easily maintain their balance in this test.

[5] = Rotorod Toxicity Test, rats; type: in vivo; conditions: rat, in vivo, po
Protocol: as §1, §7

in vivo [6] = conditions: mouse
Protocol: as §1, §7

[7] = test system: subcutaneous bicuculline seizure threshold; experiment: subcutaneous Bicuculline Seizure Threshold Test (sc Bic); conditions: for ED50: Mus musculus, ip, read-out: ED50 Bicuculline, mice
Protocol: as §1
(§8) The profile of anti-convulsant activity for each substance was established by five tests: one electrical and four chemical. […] The four chemical tests included the subcutaneous Metrazol Seizure Threshold Test (sc Met), subcutaneous Bicuculline Seizure Threshold Test (sc Bic), subcutaneous Picrotoxin Seizure Threshold Test (sc Pic), and the subcutaneous Strychnine Seizure Pattern Test (sc Strych). These tests are conducted by administering the anti-convulsant compound or drug to the animals then giving the convulsive amount of electrical energy or chemical convulsant and measuring the ability of the test compound to prevent the production of convulsions.
(c) scBic=Subcutaneous bicuculline seizure threshold test.
as §4

[8] = test system: maximal electroshock seizures; experiment: maximal electroshock seizure (MES) pattern test, mice; conditions: for ED50: Mus musculus, read-out: ED50 MES
Protocol: as §1
(§9) The profile of anti-convulsant activity for each substance was established by five tests: one electrical and four chemical. The electrical test employed was the maximal electroshock seizure (MES) pattern test. […] These tests are conducted by administering the anti-convulsant compound or drug to the animals then giving the convulsive amount of electrical energy or chemical convulsant and measuring the ability of the test compound to prevent the production of convulsions.
(§10) This test measures the ability of the test drug to abolish the hind-limb tonic-extensor component of maximal seizures induced by 50 mA of current delivered to the animals for 0.2 seconds.

[9] = test system: ability to maintain balance on a rotating rod
Protocol: as §1, §7

[10] = test system: subcutaneous picrotoxin seizure threshold; conditions: mice
Protocol: as §1, §2, §5, §6

righting reflex = experiment: hypnosis (loss of righting reflex), HD50; conditions: mice; intraperitoneal
Protocol: as §1
(§11) (h) HD50=Hypnotic dose in 50% of the subjects tested.
(§12) (l) Slope of regression line--This represents the rate of change in response (effect) for a change in dose. The higher the numerical value of the slope, the greater the rate of change in response.

[11] = hypnosis (loss of righting reflex), HD50; conditions: mouse, in vivo, ip
Protocol: as §1, §11, §12

[12] = subcutaneous Metrazol Seizure Threshold Test (sc Met), mice; conditions: mouse, in vivo, PI (TD50/ED50) sc Met, mice
Protocol: as §1, §2, §3, §4

[13] = test system: subcutaneous metrazol seizure threshold; experiment: as above; conditions: for ED50: Mus musculus, read-out: ED50 sc Met
Protocol: as §1, §2, §3, §4

[14] = maximal electroshock seizure (MES) pattern test, rats; conditions: rat, in vivo, po, PI (TD50/ED50) MES, rats (Table 7; title of Table 5 prints Mice)
Protocol: as §1, §9, §10

[15] = test system: maximal electroshock seizures; experiment: as above; conditions: for ED50: Rattus norvegicus, po, read-out: ED50 MES
Protocol: as §1, §9, §10

lethality, LD50 = type: in vivo; conditions: mouse, in vivo, ip, mice, intraperitoneal; for LD50 at 24 h: 24-hour period
Protocol: (§13) The anti-convulsant amide (4) was administered to mice and rats as a solution. The solution was prepared by dissolving the compound in 30% polyethylene glycol 400. The compound was injected either orally or intraperitoneally in a volume of 0.01 ml/g body weight in mice and 0.04 ml/10 g body weight in rats.

in vivo [16] = conditions: mouse; remark: listed apart in the source
Protocol: as §1, §9, §10

[17] = test system: subcutaneous strychnine seizure pattern; conditions: mice
Protocol: as §1, §8
(§14) (e) ScStrych=Subcutaneous strychnine seizure pattern test. The test measures the ability of the test drug to abolish all toxic components of seizures induced by the subcutaneous injection of a convulsant dose of strychnine.

in vivo [18] = conditions: mouse, ip
Protocol: as §1, §11, §12

[19] = test system: subcutaneous strychnine seizure pattern; experiment: animal or person; conditions: Mus musculus, ip, read-out: ED50 Strychnine
Protocol: as §1, §8, §14

[20] = subcutaneous Metrazol Seizure Threshold Test (sc Met), rats; conditions: rat, in vivo, po
Protocol: as §1, §2, §3, §4

lethality = experiment: lethality, LD50; type: in vivo; conditions: mice; intraperitoneal; 24-hour period
Protocol: as §13

[21] = rats (Table 7; title of Table 5 prints Mice), oral, at 300 (mg/kg)
[22] = mice, oral, at / up to 300 (mg/kg)
[23] = rats (Table 7; title of Table 5 prints Mice), oral
[24] = mice, intraperitoneal, up to 100 (mg/kg)

SMILES: CC(NC(=O)c1ccc(N)cc1)c1ccccc1 (stereo not drawn) [4-amino-N-(alpha-methylbenzyl)-benzamide]
- animals protected vs sc Met test ([1]; 75 mg/kg): 4/8
- animals protected vs sc Met test ([1]; 150 mg/kg): 8/8
- Max. Prot., sc Met [1, 21]: 50%
- animals with recurring clonic seizures, sc Met [1, 21]: 1 of 8
- anti-convulsant activity in words (convulsions): effective against a wide range of convulsion types; also recorded: exhibits anti-convulsant activity in mice and rats
- mutagenic activity ([2]; absence of a metabolic activation system): negative
- mutagenic activity ([2]; rat liver activation system): negative
- ED50 [3]: 191 mg/kg
- animals toxic ([4]; 75 mg/kg): 2/8
- animals toxic ([4]; 150 mg/kg): 6/8
- TD50 [5]: 170 mg/kg
- TD50 (in vivo [6]; ip): 171 mg/kg
- TD50 (in vivo [6]; po): 271 mg/kg
- ED50 ([7]; intraperitoneal): 39.1 mg/kg
- activity against seizures induced by bicuculline ([7]; mice, in words): effective against seizures induced by bicuculline
- PI (TD50/ED50) Bicuculline ([7]; mice, intraperitoneal): 4.37
- oral ED50/i.p. ED50 ([8]; MES test in mice): 2.65
- ED50 ([8]; ip): 18 mg/kg
- ED50 ([8]; po): 47.7 mg/kg
- absorption after oral administration ([8]; mice, from oral ED50/i.p. ED50 in MES test): adequately absorbed
- Rotorod TD50 ([9]; mice, intraperitoneal): 170.78 mg/kg
- activity against picrotoxin seizures ([10]; in words): effective against picrotoxin seizures in toxic doses
- PI (TD50/ED50) Picrotoxin ([10]; intraperitoneal): 0.89
- HD50 (righting reflex) (righting reflex): 461.76 mg/kg
- TD50 [11]: 462 mg/kg
- selectivity ratio ([12]; intraperitoneal): 4.09
- selectivity ratio ([12]; oral): < 0.9
- ED50 ([13]; ip): 41.7 mg/kg
- Maximum protection, sc Met ([13]; mice, oral, at 100 (mg/kg)): 25%
- protection, sc Met [13, 22]: no protection and No
- selectivity ratio [14]: 10.6
- ED50 [15]: 16.1 mg/kg
- PI (TD50/ED50) MES [15, 23]: 10.5
- selectivity ratio (lethality, LD50; read-out: Ratio LD50/HD50): 1.56
- selectivity ratio (lethality, LD50; read-out: Ratio LD50/TD50): 4.21
- LD50 at 24 h (lethality, LD50): 718 mg/kg
- selectivity ratio (in vivo [16]; ip): 9.48
- selectivity ratio (in vivo [16]; po): 5.69
- activity against seizures induced by strychnine ([17]; in words): only partially effective
- PI (TD50/ED50) Strychnine ([17]; intraperitoneal): < 0.85
- Maximum protection, Strychnine ([17]; intraperitoneal, at 170 mg/kg): 37.5%
- protection, Strychnine ([17]; intraperitoneal, at 200 (mg/kg)): 25%

SMILES: NC(=O)N1c2ccccc2C=Cc2ccccc21 [Carbamazepine]
- sc Met result in words [1, 23]: Variable
- ED50 [3]: 37.2 mg/kg
- fraction protected, Bicuculline ([7]; mice, intraperitoneal, 100 mg/kg): 1/2
- Max. Prot., Bicuculline ([7]; mice, intraperitoneal, at 50-130 (mg/kg)): 62.5%
- ED50 ([8]; ip): 8.81 mg/kg
- ED50 ([8]; po): 15.4 mg/kg
- TD50 (in vivo [18]): 172 mg/kg
- ED50 ([13]; po): 48.1 mg/kg
- protection, sc Met [13, 24]: No protection; also recorded: No protect-
- ED50 [15]: 8.5 mg/kg
- LD50 at 24 h (lethality, LD50): 629 mg/kg
- ED50 [19]: 78.8 mg/kg

SMILES: CCC1(c2ccccc2)NC(=O)N(C)C1=O (stereo not shown) [Mephenytoin]
- selectivity ratio [20]: 3.96
- ED50 ([1]; read-out: ED50 sc Met): 21.6 mg/kg
- ED50 [3]: 101 mg/kg
- TD50 [5]: 85.7 mg/kg
- TD50 (in vivo [6]; po): 354 mg/kg
- PI (TD50/ED50) Bicuculline ([7]; mice, intraperitoneal): 1.24
- ED50 ([8]; ip): 60.5 mg/kg
- ED50 ([8]; po): 65.9 mg/kg
- TD50 (in vivo [18]): 406 mg/kg
- PI (TD50/ED50) Picrotoxin ([10]; intraperitoneal): 1.52
- selectivity ratio ([12]; intraperitoneal): 5.05
- selectivity ratio ([12]; oral): 9.75
- ED50 ([13]; ip): 30.4 mg/kg
- ED50 ([13]; po): 36.3 mg/kg
- PI (TD50/ED50) sc Met ([13]; mice, oral): 9.73
- selectivity ratio [14]: 4.74
- ED50 [15]: 18.1 mg/kg
- selectivity ratio (lethality, LD50; read-out: Ratio LD50/HD50): 1.4
- selectivity ratio (lethality, LD50; read-out: Ratio LD50/TD50): 3.69
- LD50 at 24 h (lethality, LD50): 568 mg/kg
- selectivity ratio (in vivo [16]; ip, PI (TD50/ED50) MES, mice, intraperitoneal): 2.54
- selectivity ratio (in vivo [16]; po, PI (TD50/ED50) MES, mice): 5.37
- Max. Prot., Strychnine ([17]; intraperitoneal, at 70-150 (mg/kg)): 50%

SMILES: Nc1ccc(C(=O)NCc2ccccc2)cc1 [No. 4, 4-amino-N-benzyl-benzamide]
- TD50 (in vivo [6]; ip): 83.4 mg/kg
- ED50 ([8]; ip): 23.3 mg/kg

SMILES: CCC1(c2ccccc2)C(=O)NC(=O)NC1=O [Phenobarbital]
- ED50 ([1]; read-out: ED50 sc Met, rats (Table 7; title of Table 5 prints Mice), oral): 11.6 mg/kg
- ED50 sc Met [1, 23]: 11.58 mg/kg
- ED50 [3]: 27.5 mg/kg
- Rotorod TD50 [4, 23]: 61.09 mg/kg
- ED50 ([7]; intraperitoneal): 37.7 mg/kg
- ED50 ([8]; ip): 21.8 mg/kg
- ED50 ([8]; po): 20.1 mg/kg
- HD50 (righting reflex) (righting reflex): 135.45 mg/kg
- TD50 [11]: 135 mg/kg
- ED50 ([13]; ip): 13.2 mg/kg
- ED50 ([13]; po): 12.6 mg/kg
- ED50 [15]: 9.14 mg/kg
- LD50 (lethality) (lethality): 264.70 mg/kg
- ED50 [19]: 95.3 mg/kg

SMILES: O=C1NC(=O)C(c2ccccc2)(c2ccccc2)N1 [Phenytoin]
- protection, sc Met ([1]; rats (Table 7; title of Table 5 prints Mice), oral, up to 800 (mg/kg)): No pro-
- TD50 [5]: > 3000 mg/kg
- protection, Bicuculline [7, 24]: No pro-
- TD50 (in vivo [18]): 178 mg/kg
- protection, Picrotoxin ([10]; intraperitoneal, up to 100 (mg/kg)): No pro-
- protection, sc Met [13, 24]: No pro-
- protection, sc Met ([13]; mice, intraperitoneal, up to 300 (mg/kg)): No protect-; also recorded: No protection
- protection, sc Met [13, 22]: No protection; also recorded: No pro-
- ED50 [15]: 29.8 mg/kg
- LD50 (lethality) (lethality): 229.61 mg/kg
- Max. Prot., Strychnine ([17]; intraperitoneal, at 55-100 (mg/kg)): 50%

SMILES: Nc1ccc(C(=O)Nc2ccccc2)cc1 [compound 1]
- ED50 ([8]; ip): 50.5 mg/kg
- TD50 ([9]; mouse, in vivo, ip): 111.30 mg/kg
- ED50 ([13]; ip): 59.1 mg/kg

SMILES: Nc1ccc(C(=O)NC2CCCCC2)cc1 [compound 2]
- TD50 (in vivo [6]; ip): 189 mg/kg
- ED50 ([8]; ip): 67.2 mg/kg
- ED50 ([13]; ip): 123 mg/kg

SMILES: CCCCCNC(=O)c1ccc(N)cc1 [compound 3]
- TD50 (in vivo [6]; ip): 68.5 mg/kg
- ED50 ([8]; ip): 43 mg/kg
- ED50 ([13]; ip): 57.3 mg/kg

SMILES: CCCN(CCC)C(=O)c1ccc(N)cc1 [compound 5]
- TD50 (in vivo [6]; ip): 116 mg/kg
- ED50 ([8]; ip): 61.7 mg/kg
